Test results: patent US20240018105A1, “TROPOLONE DERIVATIVES AND TAUTOMERS THEREOF FOR IRON REGULATION IN ANIMALS” (Kinesid Therapeutics, Inc., priority 2019, published 2024)

Test: Ligand facilitated Fe(III) efflux from liposomes
Details: 10 uM ligand concentration; for Liposome Fe transport kefflux at 10 10 μM: Table 1; for Liposome Fe transport Kefflux at 10 μM: Table 2
Procedure: Assay 1: Ligand Facilitated Fe(III) Efflux from Liposomes Preparation of POPC (1-palmitoyl-2-oleoyl-sn-glycero-3-phosphocholine): Cholesterol Liposomes:
A 1M buffer solution of MES and Tris was prepared by dissolving 121.14 grams of Tris base and 213.25 grams of MES hydrate in 500 mL of MilliQ water and adjusted to pH7.0 using an […] HCl solution before bringing the total volume of the solution to 1 L. A 500 mM solution of FeCl3 was prepared by dissolving 0.811 grams of anhydrous FeCl3 in 10 mL of a 0.1M H2SO4 aqueous solution. Inside buffer is prepared in a 50 mL falcon tube, which was added with 25 mL of MilliQ water, 1.61 g of sodium citrate, 1.5 mL of the above FeCl3 solution, and 2.5 mL of the 1M MES/Tris HCl buffer (pH=7.0), and finally additional MilliQ H2O to bring to a 50 mL final volume.
Lipid solution is prepared by dissolving 206.9 mg of POPC (1-palmitoyl-2-oleoyl-sn-glycero-3-phosphocholine) and 8.6 mg of cholesterol in 10 mL of ethanol.
The lipids solution and the inside buffer solution are independently loaded into 10 mL luer lock syringes for loading into a virgin cartridge on a Precision Nanosystems NanoAssembler to prepare unilamaller liposomes with the following parameters: 7.5 mL total volume, 1.5:1 mixing ratio of inside buffer:lipids solution, 8 mL/min flow rate, ambient temperature, 0.35 mL start waste, and 0.05 mL of end waste. 7.5 mL of liposomes is harvested for purification on a 6-inch long, 1-inch diameter Sephadex G-50 column wetted in 600 mM sodium ascorbate and 50 mM MES/Tris HCl pH 7.0 buffer. This buffer also serves as the column running buffer. The crude liposome solution is carefully loaded with minimal volume of running buffer above the top of the Sphadex, allowed to enter the matrix, and the column is run with the continued addition of running buffer. The eluting liposomes, observed as a milky and turbid solution, are collected until free iron begins to elute (observed as a deep purple color) and the fractions are pooled for phosphorus quantitation.
Phosphorus content of eluted liposomes was determined by the process outlined below. 10 uL of liposome elution and a running buffer blank are added to a 5 mL glass vial containing 450 uL of a 8.9 M aqueous H2SO4 solution, the mixture is heated to 225° C. for 25 minutes in an aluminum heat block to hydrolyze POPC and cooled for 5 minutes. 200 ul of a 30% hydrogen peroxide aqueous solution is added to each vial and heated to 225° C. for 25 minutes. After cooling, the phosphorus content was determined using an Abcam Phosphate Assay kit, with buffer subtracted phosphorus levels determined against a standard curve of phosphate included in the kit. Liposomes were diluted to 1 mM phosphate in Running Buffer for use in assays after accounting for dilutions made during phospholipid digestion.
Determination of the rate at which a small molecule ligand liberates (transport) Ferric iron from liposomes is performed in clear bottom black 384-well plates on a Spectramax i3x set to read the absorbance at 562 nm in the kinetic mode every 60 seconds for 120 minutes. 1 uL of serially diluted DMSO stock solution of a small molecule ligand is added to wells in triplicate to give the final concentrations of 40, 20, 10, 5, 2.5, and 1.25 uM of the ligand at 80 μL final volume, followed by addition of 1 μL of 100 mM Ferrozine in water to give a final concentration of 1 mM ferrozine. 78 uL of liposomes diluted to 1 mM phosphorus in running buffer is added to wells as quickly as possible (using a digital repeater mulchannel pipette) with the kinetic read initiated as rapidly as possible after addition of liposomes to all wells. Typically, eight compounds at six concentrations are tested in triplicate simultaneously.
Upon completion of kinetic read, the data for individual reads is fitted to a single phase association regression with the equation Y=(Y0−YMax)^(−kX)+YMax, with Y being the 562 absorbance value and X being time in minutes. […]

Row | SMILES | Liposome Fe transport kefflux at 10 10 μM | Liposome Fe transport Kefflux at 10 μM
1 | Cc1nc(C)c(-c2ccc(O)c(=O)cc2)cc1F.O=C(O)C(F)(F)F [Ex.21, 5-(5-fluoro-2,6-dimethylpyridin-3-yl)-2-hydroxycyclohepta-2,4,6-trien-1-one] | 0.1-5 | 
2 | O=c1ccccc(-c2nccs2)c1O [Ex.80, 2-hydroxy-3-(thiazol-2-yl)cyclohepta-2,4,6-trien-1-one] |  | 5-7.5
3 | Cc1c(F)cncc1-c1ccc(O)c(=O)c(C)c1 [Ex.63, 4-(5-fluoro-4-methylpyridin-3-yl)-7-hydroxy-2-methylcyclohepta-2,4,6-trien-1-one] |  | 10-25
4 | CSc1nccc(-c2ccccc(O)c2=O)n1 [Ex.40, 2-hydroxy-7-(2-(methylthio)pyrimidin-4-yl)cyclohepta-2,4,6-trien-1-one] | 5-7.5 | 
5 | O=c1ccccc(-c2ncccc2F)c1O [Ex.71, 3-(3-fluoropyridin-2-yl)-2-hydroxycyclohepta-2,4,6-trien-1-one] |  | 0.1-5
6 | O=c1ccc(-c2ncccn2)ccc1O [Ex.44, 2-hydroxy-5-(pyrimidin-2-yl)cyclohepta-2,4,6-trien-1-one] | 0.1-5 | 
7 | O=c1ccc(Oc2ccc(F)cc2)ccc1O [Ex.65, 5-(4-fluorophenoxy)-2-hydroxycyclohepta-2,4,6-trien-1-one] |  | 5-7.5
8 | Cc1cncc(-c2cccc(=O)c(O)c2)c1 [Ex.55, 2-hydroxy-4-(5-methylpyridin-3-yl)cyclohepta-2,4,6-trien-1-one] | 0.1-5 | 
9 | CC(C)c1cccc(-c2cncc(F)c2)c(=O)c1O [Ex.62, 7-(5-fluoropyridin-3-yl)-2-hydroxy-3-isopropylcyclohepta-2,4,6-trien-1-one] |  | <0.1
10 | Cc1nc(C)c(-c2cccc(=O)c(O)c2)cc1F.O=C(O)C(F)(F)F [Ex.20, 4-(5-fluoro-2,6-dimethylpyridin-3-yl)-2-hydroxycyclohepta-2,4,6-trien-1-one] | 0.1-5 | 
11 | O=c1ccc(F)cc(-c2cscn2)c1O [Ex.83, 5-fluoro-2-hydroxy-3-(thiazol-4-yl)cyclohepta-2,4,6-trien-1-one] |  | 0.1-5
12 | Cc1cccc(Oc2ccc(F)cc2F)c(O)c1=O [Ex.77, 3-(2,4-difluorophenoxy)-2-hydroxy-7-methylcyclohepta-2,4,6-trien-1-one] |  | 0.1-5
13 | O=c1c(Cl)cccc(-c2cscn2)c1O [Ex.82, 7-chloro-2-hydroxy-3-(thiazol-4-yl)cyclohepta-2,4,6-trien-1-one] |  | 0.1-5
14 | O=c1cccc(-c2ccncc2)cc1O [Ex.7, 2-hydroxy-4-(pyridin-4-yl)cyclohepta-2,4,6-trien-1-one] | 0.1-5 | 
15 | O=c1ccc(-c2ccc(F)cn2)ccc1O [Ex.22, 5-(5-fluoropyridin-2-yl)-2-hydroxycyclohepta-2,4,6-trien-1-one] | 0.1-5 | 
16 | Nc1ncc(-c2cccc(=O)c(O)c2)cn1.O=C(O)C(F)(F)F [Ex.41, 4-(2-aminopyrimidin-5-yl)-2-hydroxycyclohepta-2,4,6-trien-1-one] | 0.1-5 | 
17 | COC(=O)Cc1ccc(Oc2ccccc(=O)c2O)c(F)c1 [Ex.84, methyl 2-(3-fluoro-4-((2-hydroxy-3-oxocyclohepta-1,4,6-trien-1-yl)oxy)phenyl)acetate] |  | 5-7.5

Row | SMILES | Liposome Fe transport kefflux at 10 10 μM | Liposome Fe transport Kefflux at 10 μM
18 | O=c1ccccc(-c2ccns2)c1O [Ex.85, 2-hydroxy-3-(isothiazol-5-yl)cyclohepta-2,4,6-trien-1-one] |  | 0.1-5
19 | Cc1cccc(Oc2ccccc2)c(O)c1=O [Ex.78, 2-hydroxy-7-methyl-3-phenoxycyclohepta-2,4,6-trien-1-one] |  | 0.1-5
20 | O=c1cccc(-c2ncccn2)cc1O [Ex.43, 2-hydroxy-4-(pyrimidin-2-yl)cyclohepta-2,4,6-trien-1-one] | 5-7.5 | 
21 | O=C1C=CC(CCc2nc(-c3ccccc(=O)c3O)ccc2F)S1 (stereo not drawn) [Ex.74, 5-(2-(3-fluoro-6-(2-hydroxy-3-oxocyclohepta-1,4,6-trien-1-yl)pyridin-2-yl)ethyl)thiophen-2(5H)-one] |  | 0.1-5
22 | O=c1c(F)cccc(-c2cscn2)c1O [Ex.81, 7-fluoro-2-hydroxy-3-(thiazol-4-yl)cyclohepta-2,4,6-trien-1-one] |  | 7.5-10
23 | O=c1ccccc(-c2ccc(F)cn2)c1S [Ex.72, 3-(5-fluoropyridin-2-yl)-2-mercaptocyclohepta-2,4,6-trien-1-one] |  | 7.5-10
24 | COC(=O)c1ccc(Oc2ccccc(=O)c2O)c(F)c1 [Ex.86, methyl 3-fluoro-4-((2-hydroxy-3-oxocyclohepta-1,4,6-trien-1-yl)oxy)benzoate] |  | 0.1-5
25 | Cc1c(F)cncc1-c1ccc(O)c(=O)c(C(C)C)c1 [Ex.64, 4-(5-fluoro-4-methylpyridin-3-yl)-7-hydroxy-2-isopropylcyclohepta-2,4,6-trien-1-one] |  | <0.1
26 | Cc1ncc(F)cc1-c1ccc(O)c(=O)cc1 [Ex.60, 5-(5-fluoro-2-methylpyridin-3-yl)-2-hydroxycyclohepta-2,4,6-trien-1-one] | 0.1-5 | 
27 | Cc1cc(-c2ccc(F)cn2)ccc(O)c1=O.O=C(O)C(F)(F)F [Ex.25, 4-(5-fluoropyridin-2-yl)-7-hydroxy-2-methylcyclohepta-2,4,6-trien-1-one] | 5-7.5 | 
28 | O=c1ccc(C(CO)Cc2ccccc2)cc(-c2cscn2)c1O (stereo not drawn) [Ex.87, 2-hydroxy-5-(1-hydroxy-3-phenylpropan-2-yl)-3-(thiazol-4-yl)cyclohepta-2,4,6-trien-1-one] |  | 0.1-5
29 | Cc1cccc(-c2cncc(F)c2)c(=O)c1O.O=C(O)C(F)(F)F [Ex.27, 7-(5-fluoropyridin-3-yl)-2-hydroxy-3-methylcyclohepta-2,4,6-trien-1-one] | 10-25 | 
30 | O=c1ccccc(-c2c(F)cccc2F)c1O [Ex.68, 3-(2,6-difluorophenyl)-2-hydroxycyclohepta-2,4,6-trien-1-one] |  | 7.5-10
31 | Nc1ccc(-c2cccc(=O)c(O)c2)cn1 [Ex.13, 4-(6-aminopyridin-3-yl)-2-hydroxycyclohepta-2,4,6-trien-1-one] | 0.1-5 | 
32 | O=c1ccccc(-c2cocn2)c1O [Ex.79, 2-hydroxy-3-(oxazol-4-yl)cyclohepta-2,4,6-trien-1-one] |  | 5-7.5
33 | Cc1ccncc1-c1cccc(=O)c(O)c1 [Ex.14, 2-hydroxy-4-(4-methylpyridin-3-yl)cyclohepta-2,4,6-trien-1-one] | 0.1-5 | 
